Entries after “also recorded” stand apart in the source; their conditions may differ.
What was measured:
[1] = tested on: CD34-stained blood vessels in MDA-B6 and MDA-pc3 tumors; test: Anti-CD34 immunohistochemistry of xenograft tumors (blood vessel density); assay type: in vivo, NOD-SCID mice; details: KX2-391-treated MDA-B6 and MDA-pc3 tumors (FIG. 7B)
Procedure: (§1) FIG. 7. Analysis of the SL interaction between EPHB6 and SRC in TNBC cells and murine xenografts. A. MDA-pc3 and MDA-B6 cells were injected into the mammary fat pad region of 4-6 weeks old NOD-SCID mice (1×10^6 cells per mouse). Mice with detectable tumors were treated twice per day with 5 mg/kg KX2-391 in DMSO/water solvent or solvent alone by oral feeding (at least 6 animals per each experimental condition). Tumor size was measured every 3 days and tumor volume was calculated with the equation: A/2*B^2, where A was long and B was short diameter of the tumor. The reduction in tumor growth in KX2-391-treated mice is presented as a percentage relative to matching solvent controls. The graph summarizes two independent experiments. Day 0 indicates the beginning of treatment with KX2-391 or matching solvent control. […] Four representative fields (at 3, 6, 9, and 12 o'clock) per each stained tumor section (one for each extracted tumor) were imaged at 100× magnification and the blood vessel density per each field was analyzed with the Image-Pro Premier software. […]
For the immunohistochemical staining, tumors were dissected and fixed in 10% neutral- buffered formalin for 24-48 h. […] In each stained tumor section, 12, 3, 6 and 9 o'clock fields were imaged at 100× magnification and the density of stained blood vessels per field was quantified using the Image-Pro Premier software.

[2] = tested on: co-cultured MDA-B6 and MDA-pc3 cells; test: Drug sensitivity assay with fluorescent co-cultured cells (flow cytometry), KX2-391; assay type: cell-based, human; details: GFP/RFP-labelled MDA-B6 and MDA-pc3 co-seeded in equal numbers, 25 nM, 72 h (FIGS. 4D, 4E)
Procedure: FIG. 4. SL interaction between EPHB6 and SRC. A. MDA-pc3 and MDA-B6 cells were cultured in 96-well plates with the indicated concentrations of SU6656 or matching volumes of DMSO for 72 h. Cells were stained with resazurin and fluorescence was measured using a SpectraMax M5 plate reader to determine cell suppression. Five wells were analyzed per condition. […] B. MDA-pc3 and MDA-B6 cells were cultured in 96-well plates with the indicated concentrations of KX2-391 or matching volumes of DMSO for 72 h. Cells were stained with resazurin and fluorescence was measured using a SpectraMax M5 plate reader to determine cell suppression. Five wells were analyzed per condition. […] C. MDA-B6 and MDA-pc3 cells were transduced with lentivirus encoding pLD-GFP-Puro or pLD-RFP-Puro as indicated. Cells were selected with 2 μg/mL puromycin for 48 h, cultured in monolayer, and imaged by confocal microscopy at 100× magnification. […] Cells were collected and analyzed by flow cytometry and the FlowJo software. […] Cells were collected and analyzed by flow cytometry and the FlowJo software. […]
For color assays, MDA-B6-GFP and MDA-pc3-RFP, or MDA-B6-RFP and MDA-pc3-GFP cells were co-seeded in equal numbers in 12-well plates at indicated cell densities. […] Treated cells were collected and quantitated by flow cytometry. Results were analyzed using the FlowJo software (FLOWJO LLC, Ashland, Oreg., USA).

prostate cancer = details: reference [26]; cited from earlier work
[3] = tested on: MDA-pc3 and MDA-B6 TNBC tumors; test: Tumor xenograft study, tumor growth; assay type: in vivo, NOD-SCID mice; details: 5 mg/kg orally twice a day, MDA-pc3 vs MDA-B6 xenografts (FIG. 7A)
Procedure: as §1, with “experiments.” for “experiments. Day 0 indicates the beginning of treatment with KX2-391 or matching solvent control.”
Breeder pairs of NOD SCID gamma mice were purchased from The Jackson Laboratory and a colony was established at the Laboratory Animal Services Unit, University of Saskatchewan. […] Digital caliper measurements were taken every 3 days and tumor volume was calculated by the formula A/2*B^2 (where A and B were the long and short diameters of the tumor respectively). […]

O=C(Cc1ccc(-c2ccc(OCCN3CCOCC3)cc2)cn1)NCc1ccccc1 [KX2-391]
neovascularization (CD34 staining) of treated EPHB6-positive vs EPHB6-negative tumors [1]: has not shown any differences in neovascularization | cell suppression in co-culture monitored by flow cytometry [2]: EPHB6-deficient cells are much less resistant to SRC inhibition | clinical effect in phase II trials for prostate cancer (prostate cancer): relatively modest effect | suppression of tumor growth, EPHB6-deficient vs EPHB6-expressing tumors [3]: more efficiently suppresses growth of EPHB6-deficient TNBC tumors; also recorded: significantly more effective in suppressing EPHB6-deficient TNBC tumors

From patent publication US20190203253A1, “METHODS OF IDENTIFYING AND TREATING CANCER PATIENTS WITH AN EPHB6 DEFICIENCY” (University of Saskatchewan, priority 2016, published 2019)
